Calls of active or inactive are those of the source.
How the values were obtained:
[1] = target: T1, Calpain-2 catalytic subunit (Sus scrofa, UniProt P43367); experiment: pig calpain II inhibitor potency, dose response, biochemical, fluorogenic peptide substrate (AID 1420); assay type: functional
T1 sequence (P43367 whole entry): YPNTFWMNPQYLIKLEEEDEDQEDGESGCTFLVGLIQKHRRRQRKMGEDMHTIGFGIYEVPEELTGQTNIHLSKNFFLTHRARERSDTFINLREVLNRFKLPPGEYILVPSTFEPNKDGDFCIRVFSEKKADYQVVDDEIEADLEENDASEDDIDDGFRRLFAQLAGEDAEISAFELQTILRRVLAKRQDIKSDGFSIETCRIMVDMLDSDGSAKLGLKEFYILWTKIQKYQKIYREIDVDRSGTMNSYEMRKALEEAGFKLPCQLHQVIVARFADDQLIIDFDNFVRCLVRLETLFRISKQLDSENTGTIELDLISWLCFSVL

[2] = Shn3 3'UTR reporter inhibitors, dose response, cell-based, Clone20 osteoblasts, firefly luciferase, cherry-picked (AID 624132); assay type: functional;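 note: firefly luciferase luminescence from reporter carrying the Shn3 3'UTR in osteoblasts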
[3] = HepG2 cell cytotoxicity, dose response, cytotoxicity control for Shn3 inhibitor project, CellTiter-Glo, cherry-picked (AID 624134); assay type: functional, cell-based
[4] = control 3'UTR Renilla luciferase suppression, dose response, counter-screen for Shn3 inhibitor project, cell-based, Clone20-Shn3RL, cherry-picked (AID 624133); assay type: functional
[5] = target: T2, RNA-binding protein pos-1 (Caenorhabditis elegans, UniProt G5EF15); experiment: inhibitors of POS-1/mex-3 RNA binding, dose response, biochemical, fluorescence polarization (AID 1964);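 note: purified POS-1 fused to maltose binding protein made in E. coli; potency of compounds blocking POS-1 binding to fluorescent RNA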
T2 sequence (G5EF15 whole entry): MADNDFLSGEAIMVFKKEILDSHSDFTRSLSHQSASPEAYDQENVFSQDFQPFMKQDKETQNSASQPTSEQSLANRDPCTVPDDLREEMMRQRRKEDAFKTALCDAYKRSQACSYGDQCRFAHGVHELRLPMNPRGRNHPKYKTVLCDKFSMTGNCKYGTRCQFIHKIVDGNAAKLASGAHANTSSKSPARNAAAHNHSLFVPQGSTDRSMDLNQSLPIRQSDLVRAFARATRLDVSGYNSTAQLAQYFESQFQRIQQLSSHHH

[6] = target: T3, Zinc finger protein mex-5 (Caenorhabditis elegans, UniProt Q9XUB2); experiment: MEX-5/TCR-2 RNA interaction inhibitors, dose response, biochemical, C. elegans, fluorescence polarization (AID 1960)
T3 sequence (Q9XUB2 whole entry): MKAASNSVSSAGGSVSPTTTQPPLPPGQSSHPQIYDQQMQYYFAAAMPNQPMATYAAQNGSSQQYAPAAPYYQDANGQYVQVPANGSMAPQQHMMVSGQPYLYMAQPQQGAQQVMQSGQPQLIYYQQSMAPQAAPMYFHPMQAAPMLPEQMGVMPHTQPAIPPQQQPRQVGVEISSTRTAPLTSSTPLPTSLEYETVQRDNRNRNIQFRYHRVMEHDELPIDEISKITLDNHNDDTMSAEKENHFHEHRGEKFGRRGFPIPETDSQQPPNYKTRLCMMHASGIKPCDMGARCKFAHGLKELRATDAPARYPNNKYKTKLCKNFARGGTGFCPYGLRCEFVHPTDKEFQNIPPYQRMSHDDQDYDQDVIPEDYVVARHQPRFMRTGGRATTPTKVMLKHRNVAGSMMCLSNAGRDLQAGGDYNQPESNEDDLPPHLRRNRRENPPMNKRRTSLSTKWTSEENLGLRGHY

[7] = target: T4, Replicative DNA helicase DnaB (Mycobacterium tuberculosis, UniProt P9WMR3); experiment: DnaB intein splicing inhibitors, dose response, biochemical, cell-free fluorescence (AID 449749); assay type: functional
T4 sequence (P9WMR3 whole entry): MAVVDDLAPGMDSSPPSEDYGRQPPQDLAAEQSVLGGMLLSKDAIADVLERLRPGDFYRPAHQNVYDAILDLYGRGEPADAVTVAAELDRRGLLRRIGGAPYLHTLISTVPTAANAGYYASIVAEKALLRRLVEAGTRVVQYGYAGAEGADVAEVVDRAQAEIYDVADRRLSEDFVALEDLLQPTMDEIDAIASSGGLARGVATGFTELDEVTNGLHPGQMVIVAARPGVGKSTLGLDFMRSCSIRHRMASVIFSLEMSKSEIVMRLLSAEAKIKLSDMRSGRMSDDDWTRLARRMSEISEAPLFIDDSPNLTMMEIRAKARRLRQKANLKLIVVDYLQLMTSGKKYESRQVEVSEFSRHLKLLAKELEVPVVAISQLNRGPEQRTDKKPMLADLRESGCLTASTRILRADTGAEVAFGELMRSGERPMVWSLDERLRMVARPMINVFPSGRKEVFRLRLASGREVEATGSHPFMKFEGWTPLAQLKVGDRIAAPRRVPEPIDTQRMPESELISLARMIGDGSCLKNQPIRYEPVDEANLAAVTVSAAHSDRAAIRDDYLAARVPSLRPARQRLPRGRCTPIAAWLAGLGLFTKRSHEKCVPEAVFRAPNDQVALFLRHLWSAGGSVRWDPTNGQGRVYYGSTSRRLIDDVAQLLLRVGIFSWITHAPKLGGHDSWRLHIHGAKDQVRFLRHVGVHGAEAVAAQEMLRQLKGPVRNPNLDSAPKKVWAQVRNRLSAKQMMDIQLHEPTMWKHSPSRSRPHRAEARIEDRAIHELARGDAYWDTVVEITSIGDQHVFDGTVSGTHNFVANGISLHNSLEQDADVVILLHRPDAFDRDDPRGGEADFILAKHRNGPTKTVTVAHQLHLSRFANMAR

[8] = target: T5, Protein RecA (Mycobacterium tuberculosis, UniProt P9WHJ3); experiment: Fluorescence Cell-Free Homogeneous Dose Retest to Identify Inhibitors of RecA-Intein Splicing Activity. [Related pubchem assays (depositor defined):AID2097, AID2223, AID489010, AID492950]; assay type: functional
T5 sequence (P9WHJ3 whole entry): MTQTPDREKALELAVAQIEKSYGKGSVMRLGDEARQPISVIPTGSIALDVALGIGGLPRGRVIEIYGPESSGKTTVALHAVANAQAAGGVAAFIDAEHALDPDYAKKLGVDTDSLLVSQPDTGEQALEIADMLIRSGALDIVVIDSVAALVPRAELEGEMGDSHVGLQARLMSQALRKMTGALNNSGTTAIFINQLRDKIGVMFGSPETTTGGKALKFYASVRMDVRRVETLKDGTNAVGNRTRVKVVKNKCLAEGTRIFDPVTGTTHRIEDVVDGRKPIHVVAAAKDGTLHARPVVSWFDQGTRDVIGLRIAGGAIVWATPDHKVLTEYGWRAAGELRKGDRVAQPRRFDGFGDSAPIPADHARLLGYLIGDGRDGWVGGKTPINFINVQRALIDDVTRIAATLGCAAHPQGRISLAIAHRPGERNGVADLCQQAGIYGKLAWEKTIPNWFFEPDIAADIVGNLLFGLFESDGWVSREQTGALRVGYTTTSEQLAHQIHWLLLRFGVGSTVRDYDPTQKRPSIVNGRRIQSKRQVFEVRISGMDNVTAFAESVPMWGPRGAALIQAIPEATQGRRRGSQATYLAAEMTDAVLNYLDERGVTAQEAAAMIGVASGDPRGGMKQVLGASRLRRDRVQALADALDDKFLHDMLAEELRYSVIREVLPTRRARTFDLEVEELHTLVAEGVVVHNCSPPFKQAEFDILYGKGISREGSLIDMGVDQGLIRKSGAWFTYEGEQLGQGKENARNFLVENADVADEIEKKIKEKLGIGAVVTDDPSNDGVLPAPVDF

[9] = target: Genome polyprotein (dengue virus type 2, UniProt P29990); experiment: Dengue-2 NS5 methyltransferase inhibitors, primary screen, biochemical, confirmation dose response (AID 588689); assay type: functional
[10] = target: T6, Rac GTPase-activating protein 1 (Homo sapiens, UniProt Q9H0H5); experiment: MgcRacGAP GTPase-activating activity inhibitors, confirmation, biochemical, ADP Hunter fluorescence, primary and confirmatory (AID 624330); assay type: functional
T6 sequence (Q9H0H5 whole entry): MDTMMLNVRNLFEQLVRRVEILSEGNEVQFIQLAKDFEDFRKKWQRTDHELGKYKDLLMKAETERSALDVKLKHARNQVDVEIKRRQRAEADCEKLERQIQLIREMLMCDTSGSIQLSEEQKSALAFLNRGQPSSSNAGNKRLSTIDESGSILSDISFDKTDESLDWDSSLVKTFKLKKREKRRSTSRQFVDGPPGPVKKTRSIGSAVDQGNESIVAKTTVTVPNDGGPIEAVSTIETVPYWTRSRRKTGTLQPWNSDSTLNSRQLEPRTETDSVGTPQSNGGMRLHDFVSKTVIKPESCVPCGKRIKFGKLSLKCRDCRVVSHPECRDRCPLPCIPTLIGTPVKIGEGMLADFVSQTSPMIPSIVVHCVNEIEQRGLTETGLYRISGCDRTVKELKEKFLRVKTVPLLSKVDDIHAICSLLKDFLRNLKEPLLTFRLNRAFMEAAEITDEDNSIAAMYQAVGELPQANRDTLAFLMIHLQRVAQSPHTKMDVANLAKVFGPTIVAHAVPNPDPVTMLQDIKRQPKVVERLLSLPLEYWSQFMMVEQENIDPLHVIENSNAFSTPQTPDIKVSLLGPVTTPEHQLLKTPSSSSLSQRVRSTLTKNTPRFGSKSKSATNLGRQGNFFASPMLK

[11] = test system: Vero; experiment: cells; assay type: functional; details: Chlorocebus sabaeus
[12] = inhibitors of HIV Env-driven cell fusion, dose response, cherry-pick (AID 652057); assay type: functional, cell-based
[13] = inhibitors of clade B AD8 Env fusion, dose response, cell-based, cherry-pick (AID 652062); assay type: functional;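 note: luciferase signal from cell-cell fusion driven by HIV-1 clade B AD8 Env; potency is for inhibitors of fusion seen as a drop in luminescence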

Genome polyprotein, sequence (P29990 2492-3391 limits assumed): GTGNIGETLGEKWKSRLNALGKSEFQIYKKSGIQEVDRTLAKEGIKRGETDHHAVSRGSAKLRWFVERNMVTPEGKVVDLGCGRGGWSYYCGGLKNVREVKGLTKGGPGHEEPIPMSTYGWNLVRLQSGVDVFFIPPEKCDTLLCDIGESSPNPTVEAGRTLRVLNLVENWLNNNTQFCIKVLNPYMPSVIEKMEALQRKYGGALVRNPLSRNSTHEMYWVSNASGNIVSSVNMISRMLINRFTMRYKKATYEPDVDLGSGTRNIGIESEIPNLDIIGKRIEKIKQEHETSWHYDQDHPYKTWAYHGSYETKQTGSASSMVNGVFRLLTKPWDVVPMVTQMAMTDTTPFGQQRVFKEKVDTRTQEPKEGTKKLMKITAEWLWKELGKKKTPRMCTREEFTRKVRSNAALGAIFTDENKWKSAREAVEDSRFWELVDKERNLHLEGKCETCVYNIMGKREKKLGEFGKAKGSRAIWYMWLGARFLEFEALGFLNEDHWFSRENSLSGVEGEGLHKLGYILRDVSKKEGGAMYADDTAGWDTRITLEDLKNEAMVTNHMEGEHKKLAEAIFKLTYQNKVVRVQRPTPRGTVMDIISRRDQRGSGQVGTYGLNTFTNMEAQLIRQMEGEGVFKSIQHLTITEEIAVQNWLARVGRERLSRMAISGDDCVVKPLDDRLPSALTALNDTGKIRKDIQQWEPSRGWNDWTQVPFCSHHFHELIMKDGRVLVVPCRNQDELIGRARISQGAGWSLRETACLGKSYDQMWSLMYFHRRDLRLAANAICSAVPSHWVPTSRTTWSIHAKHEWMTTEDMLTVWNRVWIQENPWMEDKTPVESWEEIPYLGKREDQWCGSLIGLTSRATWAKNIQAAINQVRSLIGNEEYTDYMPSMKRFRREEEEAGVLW

## CCCCNC(=O)c1ccccc1C(=O)NCCCC
[1]
  IC50: < 0.4 µM (not active)

## Cc1cc(NNC(=O)c2cccc(C(F)(F)F)c2)nc2c1c(C)nn2C
[2]
  AC50: 2.43 µM (active)
[3]
  AC50: 57 µM (active)
[4]
  AC50: 3.61 µM (active)

## Cc1ccccc1N1C(=O)NC(=O)/C(=C\c2cc(C)n(C)c2C)C1=O
[5]
  EC50: > 300 µM (not active)
[6]
  EC50: > 300 µM (not active)

## COc1ccccc1/C=C(/C(=O)OCC(=O)Nc1ccccc1C)c1ccccc1
[1]
  IC50: 9.36 µM (not active)

## Cc1ccc(C)c(N2CCN(C(=O)CCS(=O)(=O)c3ccc4c(c3)NC(=O)C(C)S4)CC2)c1 (stereo not drawn)
[2]
  AC50: 4.47 µM (active)
[3]
  AC50: 4.58 µM (active)
[4]
  AC50: 8.6 µM (active)

## COc1ccccc1/C=C1/C(=O)N(c2ccccc2)N=C1C
[7]
  AC50: 96.6 µM (active)
[8]
  EC50: 0.0356 µM (active)
[9]
  IC50: 90.2 µM (active)
[10]
  IC50: 119 µM (active)

## CC(CNC(=O)c1cc(COc2ccc3ncccc3c2)on1)c1ccccc1 (stereo not drawn)
[2]
  AC50: 3.73 µM (active)
[3]
  AC50: 48.9 µM (active)
[4]
  AC50: 11.2 µM (active)

## CC1OC(Oc2c(-c3cc(O)c(O)c(O)c3)oc3cc(O)cc(O)c3c2=O)C(O)C(O)C1O (stereo not drawn)
[5]
  EC50: 18 µM (active)
[6]
  EC50: 17.2 µM (active)

## COc1cc(C2C(C#N)=C(N)OC3=C2C(=O)CC(C)(C)C3)ccc1OCCN1CCOCC1 (stereo not drawn)
[5]
  EC50: > 300 µM (not active)
[6]
  EC50: > 300 µM (not active)

## CC(=Nc1ccccc1)C1=C(O)C(Cc2ccc(O)cc2)NC1=O (stereo not drawn)
[11]
  CC50: 0.98 µM (active)

## C[C@@H]1CN([C@@H](C)CO)S(=O)(=O)c2ccc(-c3cccc(F)c3)cc2O[C@@H]1CN(C)S(=O)(=O)c1ccc(F)cc1
[12]
  AC50: 1.34 µM (active)
[13]
  AC50: 24.2 µM (active)

## CN1C(=O)c2cc(NC(=O)c3cscn3)ccc2OC[C@H]2O[C@H](CC(=O)NCc3ccc(Cl)c(Cl)c3)CC[C@H]21
[12]
  AC50: 11.3 µM (active)
[13]
  AC50: 41.8 µM (active)

## CCOC(=O)c1ccc(/N=c2\scc(C)n2CC)cc1
[1]
  IC50: > 50 µM (not active)

## CCOc1cc(/C=N/NC(=O)c2ccncc2)ccc1OS(C)(=O)=O
[1]
  IC50: < 0.4 µM (not active)

From ChEMBL document CHEMBL1201862, “PubChem BioAssay data set” (2004)
